Measured values published in patent publication US20150209315A1 (Cumberland Pharmaceuticals, priority 2009, published 2015).
Values joined by “and” are separate entries in the source; they are usually repeats but may differ in a detail not shown here. Equal entries are not always repeated.

Legend:
Type in all cases: in vivo, human
[1] = system: post-operative adult patients; assay: Example 2: time to GI motility, ambulation, liquid intake, solid diet, length of hospital stay; conditions: 800 mg; for Time to GI motility: value + SD
Description: To evaluate the secondary objective of determining whether the addition of IVIb reduces the incidence of opioid related side-effects, the following endpoints were measured: (a) GI motility as assessed by return of bowel sounds, flatulence, or bowel movement (b) Combined Safety Assessment (occurrence of any of the following during the 48 hour treatment period received a rating of one: diffuse pruritus, overt respiratory depression requiring treatment; the combined total and individual incidences were evaluated), need for post-operative urinary indwelling catheter (after initial removal of surgical catheter), incidence of post-operative vomiting or need for anti-emetic medication, Richmond Agitation Sedation Scale (<−3), (c) Resumption of ambulation, (d) Resumption of liquid intake and solid diet, and (e) Length of hospital stay.

[2] = system: post-operative adult patients; assay: Example 1: treatment failures; conditions: ITT
Description: Eligible patients were randomized to one of the three treatment groups. All patients were able (but were not required) to receive morphine until approximately 45 minutes before the end of the surgical procedure. After that time, only fentanyl was allowed until the end of the operation. The first dose of ibuprofen was administered at approximately the initiation of skin closure. […] Other than ibuprofen or placebo, only morphine was administered for pain. […] Additional morphine could be administered at the discretion of the treating physician if adequate pain control had still not been achieved. Patients given non-morphine analgesics were classified as treatment failures. Treatment failures were not replaced. A treatment failure was defined as a patient that required narcotic pain medication, other than morphine, or non-narcotic medications including the use of another NSAID through the treatment period. If other narcotics (other than morphine) or NSAIDS were started, ibuprofen/placebo was discontinued. In the ITT population, there was a numerical trend but not a statistically significant difference for fewer treatment failures in the ibuprofen groups compared to the placebo group: […]

[3] = system: post-operative adult patients; assay: Example 2: patient self-assessment of pain, VAS with movement; conditions: 800 mg
[4] = system: post-operative adult patients; assay: Example 1: morphine usage in the 24 hours following surgery
Description: The reference product, dose and mode of administration was normal saline, 100 ml, intravenous. Saline was chosen as the control group (placebo) for this study, to ensure blinding and allow for analysis of treatment effect. The duration of treatment was up to 5 days post surgery. […] Groups were stratified according to two age groups: <45 and >45 to 70 years of age and two weight groups: <75 kg and >75 kg of weight. The study participants were randomized based on criteria for an efficacy evaluable population (EEP) versus an intent to treat population (ITT). The ITT included all patients who were randomized and received at least a partial dose of ibuprofen. […] Eligible patients were randomized to one of the three treatment groups. All patients were able (but were not required) to receive morphine until approximately 45 minutes before the end of the surgical procedure. After that time, only fentanyl was allowed until the end of the operation. The first dose of ibuprofen was administered at approximately the initiation of skin closure. […] Other than ibuprofen or placebo, only morphine was administered for pain. […] Additional morphine could be administered at the discretion of the treating physician if adequate pain control had still not been achieved. Patients given non-morphine analgesics were classified as treatment failures. Treatment failures were not replaced. […] Secondary efficacy parameters were also evaluated and compared among the treatment groups using appropriate statistical methods described in the statistical analysis section of the protocol. Safety information was compared between the treatment groups using Chi-Square or Cochran-Mantel-Haenszel test. Demographic, background and baseline information among the treatment groups was also described. […] Efficacy analyses were performed on the Intent to Treat (ITT) population and the Efficacy Evaluable Population (EEP). In addition a subset of EEP patients who underwent abdominal hysterectomies (AH) were analyzed separately to evaluate efficacy in a more homogenous population.

[5] = 400 mg, AH (abdominal hysterectomies)
[6] = 800 mg, AH (abdominal hysterectomies)

CC(C)Cc1ccc(C(C)C(=O)O)cc1 (stereo not drawn) [Ibuprofen, 2-(4-isobutylphenyl) propionic acid]
Length of hospital stay ([1]; EEP): 62.8 ± 21.58
Time to ambulation ([1]; EEP): 23.5 ± 0.53 h
Time to liquid intake ([1]; EEP): 12.4 ± 0.89
Time to solid diet ([1]; EEP): 39.1 ± 1.42 h
Time to GI motility ([1]; EEP): 9.2+0.90 hours
Length of hospital stay ([1]; ITT): 62.4 ± 21.01
Time to ambulation ([1]; ITT): 23.4 ± 0.50 h
Time to liquid intake ([1]; ITT): 12.1 ± 0.83
Time to solid diet ([1]; ITT): 41.0 ± 2.46 h
Time to ambulation ([1]; ITT, listed as IV Ibuprofen): significantly improved time to ambulation
Time to GI motility ([1]; ITT): 9.4+0.87 hours
treatment failures, number of patients ([2]; 400 mg): 7
treatment failures, percent of patients ([2]; 400 mg): 5%
treatment failures, number of patients ([2]; 800 mg): 4
treatment failures, percent of patients ([2]; 800 mg): 3%
VAS Score measured with Movement (median) ([3]; EEP, 1-Hour): 9.0
VAS Score measured with Movement, % Reduction vs Placebo ([3]; EEP, 1-Hour): −12.5%
VAS Score measured with Movement (median) ([3]; EEP, 3-Hour): 7.0
VAS Score measured with Movement, % Reduction vs Placebo ([3]; EEP, 3-Hour): 0.0%
VAS Score measured with Movement (median) ([3]; EEP, 6-Hour): 6.0
VAS Score measured with Movement, % Reduction vs Placebo ([3]; EEP, 6-Hour): 0.0%
VAS Score measured with Movement (median) ([3]; EEP, 9-Hour): 5.0
VAS Score measured with Movement, % Reduction vs Placebo ([3]; EEP, 9-Hour): 0.0%
VAS Score measured with Movement (median) ([3]; EEP, 12-Hour): 4.0
VAS Score measured with Movement, % Reduction vs Placebo ([3]; EEP, 12-Hour): 20.0%
VAS Score measured with Movement (median) ([3]; EEP, 15-Hour): 3.0
VAS Score measured with Movement (median) ([3]; EEP, 18-Hour): 3.0
VAS Score measured with Movement, % Reduction vs Placebo ([3]; EEP, 18-Hour): 25.0%
VAS Score measured with Movement (median) ([3]; EEP, 21-Hour): 3.0
VAS Score measured with Movement, % Reduction vs Placebo ([3]; EEP, 21-Hour): 25.0%
VAS Score measured with Movement (median) ([3]; EEP, 24-Hour): 3.0
VAS Score measured with Movement, % Reduction vs Placebo ([3]; EEP, 24-Hour): 40.0%
VAS Score measured with Movement (median) ([3]; ITT, 1-Hour): 9.0
VAS Score measured with Movement, % Reduction vs Placebo ([3]; ITT, 1-Hour): −12.5%
VAS Score measured with Movement (median) ([3]; ITT, 3-Hour): 7.0
VAS Score measured with Movement, % Reduction vs Placebo ([3]; ITT, 3-Hour): 0.0%
VAS Score measured with Movement (median) ([3]; ITT, 6-Hour): 6.0
VAS Score measured with Movement, % Reduction vs Placebo ([3]; ITT, 6-Hour): 0.0%
VAS Score measured with Movement (median) ([3]; ITT, 9-Hour): 5.0
VAS Score measured with Movement, % Reduction vs Placebo ([3]; ITT, 9-Hour): 3.8%
VAS Score measured with Movement (median) ([3]; ITT, 12-Hour): 4.3
VAS Score measured with Movement, % Reduction vs Placebo ([3]; ITT, 12-Hour): 10.4%
VAS Score measured with Movement (median) ([3]; ITT, 15-Hour): 3.4
VAS Score measured with Movement, % Reduction vs Placebo ([3]; ITT, 15-Hour): 22.7%
VAS Score measured with Movement (median) ([3]; ITT, 18-Hour): 3.0
VAS Score measured with Movement (median) ([3]; ITT, 21-Hour): 3.0
VAS Score measured with Movement, % Reduction vs Placebo ([3]; ITT, 21-Hour): 34.8%
VAS Score measured with Movement (median) ([3]; ITT, 24-Hour): 3.6
VAS Score measured with Movement, % Reduction vs Placebo ([3]; ITT, 24-Hour): 20.0%
Morphine Usage in the 24 Hours Following Surgery, % Reduction vs. PBO [4, 5]: 15.9% and 16%
Morphine Usage in the 24 Hours Following Surgery, Median [4, 5]: 45.00
Morphine Usage in the 24 Hours Following Surgery, % Reduction vs. PBO ([4]; 400 mg, AH (abdominal hysterectomies), listed as IVIb): 15.89%
Morphine Usage in the 24 Hours Following Surgery, % Reduction vs. PBO ([4]; 400 mg, EEP): 4.4%
Morphine Usage in the 24 Hours Following Surgery, Median ([4]; 400 mg, EEP): 43.00
Morphine Usage in the 24 Hours Following Surgery, % Reduction vs. PBO ([4]; 400 mg, EEP, listed as IVIb): 4.44%
Morphine Usage in the 24 Hours Following Surgery, % Reduction vs. PBO ([4]; 400 mg, ITT): 2.76%
Morphine Usage in the 24 Hours Following Surgery, Median ([4]; 400 mg, ITT): 44.00
Morphine Usage in the 24 Hours Following Surgery, % Reduction vs. PBO [4, 6]: 41.1% and 41%
Morphine Usage in the 24 Hours Following Surgery, Median [4, 6]: 31.50
Morphine Usage in the 24 Hours Following Surgery, % Reduction vs. PBO ([4]; 800 mg, AH (abdominal hysterectomies), listed as IVIb): 41.12%
Morphine Usage in the 24 Hours Following Surgery, Median ([4]; 800 mg, EEP): 33.50
Morphine Usage in the 24 Hours Following Surgery, % Reduction vs. PBO ([4]; 800 mg, EEP, listed as IV ibuprofen): 26%
Morphine Usage in the 24 Hours Following Surgery, % Reduction vs. PBO ([4]; 800 mg, EEP, listed as IVIb): 25.56%
Morphine Usage in the 24 Hours Following Surgery, % Reduction vs. PBO ([4]; 800 mg, ITT): 21.6%
Morphine Usage in the 24 Hours Following Surgery, Median ([4]; 800 mg, ITT): 35.50
Morphine Usage in the 24 Hours Following Surgery, % Reduction vs. PBO ([4]; 800 mg, ITT, listed as IVIb): 21.55%
